IC50 data for 20 molecules are collected here from BindingDB's records for doi:10.1016/j.bmcl.2003.10.007 (Inotek Pharmaceuticals, 2003).

Structures are written as SMILES. Structures can show the parent of a compound that is named as a salt.

A short description of this assay: Tested for inhibition of poly(ADP-ribose) polymerase-1 (PARP-1) in mouse using Cell protection assay.
Molecule `Nc1ncnc2c1ncn2C1O[C@H](CNC(=O)CC(=O)Nc2cccc3c2CNC3=O)[C@@H](O)[C@H]1O` (stereo not given in full) returned an IC50 of 1.9 µM.
`Nc1ncnc2c1ncn2C1O[C@H](CNC(=O)CCCCCCCC(=O)Nc2cccc3c2CNC3=O)[C@@H](O)[C@H]1O` (stereo not given in full) showed an IC50 of 2 µM.
For `O=C(CN1CCOCC1)Nc1cccc2c1CNC2=O` [2-Morpholin-4-yl-N-(1-oxo-2,3-dihydro-1H-isoindol-4-yl)-acetamide] the value was > 30 µM.
For `CCNCC(=O)Nc1cccc2c1CNC2=O` [2-Ethylamino-N-(1-oxo-2,3-dihydro-1H-isoindol-4-yl)-acetamide] the value was 18 µM; for `Nc1cccc2c1CNC2=O` [4-Amino-2,3-dihydro-isoindol-1-one], 30 µM; for `CNCC(=O)Nc1cccc2c1CNC2=O` [2-Methylamino-N-(1-oxo-2,3-dihydro-1H-isoindol-4-yl)-acetamide], > 30 µM.
`O=C(CN1CCNCC1)Nc1cccc2c1CNC2=O` [N-(1-Oxo-2,3-dihydro-1H-isoindol-4-yl)-2-piperazin-1-yl-acetamide; hydrochloride] showed an IC50 of 18 µM.
As to `CN1CCN(CCC(=O)Nc2cccc3c2CNC3=O)CC1` [3-(4-Methyl-piperazin-1-yl)-N-(1-oxo-2,3-dihydro-1H-isoindol-4-yl)-propionamide], the IC50 is > 30 µM.
For `Nc1ncnc2c1ncn2C1O[C@H](CNC(=O)/C=C/c2ccc(C(=O)Nc3cccc4c3CNC4=O)cc2)[C@@H](O)[C@H]1O` (stereo not given in full), the midpoint of inhibition, the IC50, lay at 10 µM.
In turn, `Nc1ncnc2c1ncn2C1O[C@H](CNC(=O)CCC(=O)Nc2cccc3c2CNC3=O)[C@@H](O)[C@H]1O` (stereo not given in full) showed an IC50 of 0.1 µM. This IC50 is about 100-fold lower than that of the molecule before.
Take `Nc1ncnc2c1ncn2[C@@H]1O[C@H](C(=O)N2CCN(CC(=O)Nc3cccc4c3CNC4=O)CC2)[C@@H](O)[C@H]1O` [2-(4-((2S,3S,4R,5R)-5-(6-amino-9H-purin-9-yl)-3,4-dihydroxytetrahydrofuran-2-carbonyl)piperazin-1-yl)-N-(1-oxoisoindolin-4-yl)acetamide]: it took 0.045 µM to reach half-maximal inhibition (IC50).
On to `Nc1ncnc2c1ncn2C1O[C@H](C(=O)N2CCNCC2)[C@@H](O)[C@H]1O` (stereo not given in full), for which the IC50 is > 300 µM.
Consider `Nc1ncnc2c1ncn2C1OC(CNC(=O)CCC(=O)Nc2cccc(-c3ccccc3)c2)[C@@H](O)[C@H]1O` (stereo partly drawn) [N-[(3S,4R)-5-(6-Amino-purin-9-yl)-3,4-dihydroxy-tetrahydro-furan-2-ylmethyl]-N'-biphenyl-3-yl-succinamide], for which the midpoint of inhibition, the IC50, lay at 5 µM.
`Nc1ncnc2c1ncn2C1O[C@H](CNC(=O)CCCCCCC(=O)Nc2cccc3c2CNC3=O)[C@@H](O)[C@H]1O` (stereo not given in full) displayed an IC50 of 0.7 µM. This IC50 is about 7.1-fold lower than that of the molecule before.
As for `O=C1N=Cc2ccccc21` [Isoindol-1-one], the IC50 amounted to 30 µM.
Molecule `CNc1ncnc2c1ncn2CC(=O)Nc1cccc2c1CNC2=O` [2-(6-Methylamino-purin-9-yl)-N-(1-oxo-2,3-dihydro-1H-isoindol-4-yl)-acetamide] registered an IC50 of 3 µM. Compared with the last molecule, the IC50 is about 10-fold lower.
Take `O=C(Cn1cnc2ccccc21)Nc1cccc2c1CNC2=O` [2-Benzoimidazol-1-yl-N-(1-oxo-2,3-dihydro-1H-isoindol-4-yl)-acetamide]: the midpoint of inhibition, the IC50, lay at 3 µM.
Next, `Nc1ncnc2c1ncn2C1O[C@H](CNC(=O)CCCCCC(=O)Nc2cccc3c2CNC3=O)[C@@H](O)[C@H]1O` (stereo not given in full): 3 µM; `CN1CCN(CC(=O)Nc2cccc3c2CNC3=O)CC1` [2-(4-Methyl-piperazin-1-yl)-N-(1-oxo-2,3-dihydro-1H-isoindol-4-yl)-acetamide]: > 30 µM; `O=C(CCCCCCC(=O)Nc1cccc2c1CNC2=O)NC[C@H]1OC(n2cnc3c(=O)[nH]cnc32)[C@H](O)[C@@H]1O` (stereo not given in full): 68 µM.

As a reminder, the IC50 is the concentration at which inhibition is half-maximal.
